Data taken from paper PMC10559933 (The Prostate, 2023).
Like-named read-outs stand apart in the source and are kept apart here.

Legend:
[1] = target: T1, Human Aryl Hydrocarbon Receptor (AHR) (Homo sapiens, UniProt P35869); assay: Cell-based luciferase reporter gene assay driven by AHR-responsive promoter
T1 sequence (P35869 11-848): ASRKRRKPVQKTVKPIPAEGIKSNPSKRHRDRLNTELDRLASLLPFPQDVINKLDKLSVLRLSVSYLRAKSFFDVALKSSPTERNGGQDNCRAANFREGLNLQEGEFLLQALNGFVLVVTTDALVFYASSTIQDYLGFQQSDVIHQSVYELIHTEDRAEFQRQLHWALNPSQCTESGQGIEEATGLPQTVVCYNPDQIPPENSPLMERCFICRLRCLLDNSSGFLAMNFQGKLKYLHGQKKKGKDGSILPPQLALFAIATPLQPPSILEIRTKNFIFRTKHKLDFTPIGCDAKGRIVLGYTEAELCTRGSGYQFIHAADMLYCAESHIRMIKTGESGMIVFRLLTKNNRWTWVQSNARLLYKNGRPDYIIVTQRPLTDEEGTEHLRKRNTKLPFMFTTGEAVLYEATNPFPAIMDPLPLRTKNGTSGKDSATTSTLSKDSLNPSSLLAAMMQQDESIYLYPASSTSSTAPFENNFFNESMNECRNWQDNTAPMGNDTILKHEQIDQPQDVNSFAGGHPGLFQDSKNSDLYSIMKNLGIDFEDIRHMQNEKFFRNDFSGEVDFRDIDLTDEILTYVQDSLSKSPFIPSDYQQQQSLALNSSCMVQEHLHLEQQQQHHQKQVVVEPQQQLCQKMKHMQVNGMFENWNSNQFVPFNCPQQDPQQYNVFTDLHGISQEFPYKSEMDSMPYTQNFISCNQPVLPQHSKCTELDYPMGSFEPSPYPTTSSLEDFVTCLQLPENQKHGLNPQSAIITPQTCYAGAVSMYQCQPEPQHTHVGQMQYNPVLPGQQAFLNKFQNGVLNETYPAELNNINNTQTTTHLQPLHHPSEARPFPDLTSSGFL

LNCaP cells = assay: In vitro growth of LNCaP parental vs HDAC4 KD cells, normoxia vs hypoxia; assay type: cell-based, human; conditions: TasQ 10 μM
[2] = test system: CWR22-RH human prostate cancer PDXs; assay: In vivo growth of CWR22-RH PDX in castrate NSG mice; set-up: species or system human xenograft in NSG mice; conditions: castrate NSG mice, 3-week treatment
thymus = assay: AHR agonist induced thymus regression in FVB male mice; assay type: in vivo; conditions: oral 10 mg/kg/d for 14 days; vehicle 72 +/− 3 (>70)
liver Cyp1a1 = assay: Liver Cyp1a1 induction in mice; assay type: in vivo; conditions: oral 10 mg/kg, alone and in combination with B(a)P
[3] = test system: LvCaP-3 human prostate cancer PDXs; assay: In vivo growth of LvCaP-3 PDX in castrate mice; set-up: species or system human xenograft in mice; conditions: oral 10 mg/kg/d, alone or in combination with B(a)P
fl-NCoR1 protein = fl-NCoR1 protein (Homo sapiens, UniProt O75376); assay: SPR: TasQ in solution binding to immobilized fl-NCoR1
fl-NCoR1 protein, sequence (O75376 whole entry): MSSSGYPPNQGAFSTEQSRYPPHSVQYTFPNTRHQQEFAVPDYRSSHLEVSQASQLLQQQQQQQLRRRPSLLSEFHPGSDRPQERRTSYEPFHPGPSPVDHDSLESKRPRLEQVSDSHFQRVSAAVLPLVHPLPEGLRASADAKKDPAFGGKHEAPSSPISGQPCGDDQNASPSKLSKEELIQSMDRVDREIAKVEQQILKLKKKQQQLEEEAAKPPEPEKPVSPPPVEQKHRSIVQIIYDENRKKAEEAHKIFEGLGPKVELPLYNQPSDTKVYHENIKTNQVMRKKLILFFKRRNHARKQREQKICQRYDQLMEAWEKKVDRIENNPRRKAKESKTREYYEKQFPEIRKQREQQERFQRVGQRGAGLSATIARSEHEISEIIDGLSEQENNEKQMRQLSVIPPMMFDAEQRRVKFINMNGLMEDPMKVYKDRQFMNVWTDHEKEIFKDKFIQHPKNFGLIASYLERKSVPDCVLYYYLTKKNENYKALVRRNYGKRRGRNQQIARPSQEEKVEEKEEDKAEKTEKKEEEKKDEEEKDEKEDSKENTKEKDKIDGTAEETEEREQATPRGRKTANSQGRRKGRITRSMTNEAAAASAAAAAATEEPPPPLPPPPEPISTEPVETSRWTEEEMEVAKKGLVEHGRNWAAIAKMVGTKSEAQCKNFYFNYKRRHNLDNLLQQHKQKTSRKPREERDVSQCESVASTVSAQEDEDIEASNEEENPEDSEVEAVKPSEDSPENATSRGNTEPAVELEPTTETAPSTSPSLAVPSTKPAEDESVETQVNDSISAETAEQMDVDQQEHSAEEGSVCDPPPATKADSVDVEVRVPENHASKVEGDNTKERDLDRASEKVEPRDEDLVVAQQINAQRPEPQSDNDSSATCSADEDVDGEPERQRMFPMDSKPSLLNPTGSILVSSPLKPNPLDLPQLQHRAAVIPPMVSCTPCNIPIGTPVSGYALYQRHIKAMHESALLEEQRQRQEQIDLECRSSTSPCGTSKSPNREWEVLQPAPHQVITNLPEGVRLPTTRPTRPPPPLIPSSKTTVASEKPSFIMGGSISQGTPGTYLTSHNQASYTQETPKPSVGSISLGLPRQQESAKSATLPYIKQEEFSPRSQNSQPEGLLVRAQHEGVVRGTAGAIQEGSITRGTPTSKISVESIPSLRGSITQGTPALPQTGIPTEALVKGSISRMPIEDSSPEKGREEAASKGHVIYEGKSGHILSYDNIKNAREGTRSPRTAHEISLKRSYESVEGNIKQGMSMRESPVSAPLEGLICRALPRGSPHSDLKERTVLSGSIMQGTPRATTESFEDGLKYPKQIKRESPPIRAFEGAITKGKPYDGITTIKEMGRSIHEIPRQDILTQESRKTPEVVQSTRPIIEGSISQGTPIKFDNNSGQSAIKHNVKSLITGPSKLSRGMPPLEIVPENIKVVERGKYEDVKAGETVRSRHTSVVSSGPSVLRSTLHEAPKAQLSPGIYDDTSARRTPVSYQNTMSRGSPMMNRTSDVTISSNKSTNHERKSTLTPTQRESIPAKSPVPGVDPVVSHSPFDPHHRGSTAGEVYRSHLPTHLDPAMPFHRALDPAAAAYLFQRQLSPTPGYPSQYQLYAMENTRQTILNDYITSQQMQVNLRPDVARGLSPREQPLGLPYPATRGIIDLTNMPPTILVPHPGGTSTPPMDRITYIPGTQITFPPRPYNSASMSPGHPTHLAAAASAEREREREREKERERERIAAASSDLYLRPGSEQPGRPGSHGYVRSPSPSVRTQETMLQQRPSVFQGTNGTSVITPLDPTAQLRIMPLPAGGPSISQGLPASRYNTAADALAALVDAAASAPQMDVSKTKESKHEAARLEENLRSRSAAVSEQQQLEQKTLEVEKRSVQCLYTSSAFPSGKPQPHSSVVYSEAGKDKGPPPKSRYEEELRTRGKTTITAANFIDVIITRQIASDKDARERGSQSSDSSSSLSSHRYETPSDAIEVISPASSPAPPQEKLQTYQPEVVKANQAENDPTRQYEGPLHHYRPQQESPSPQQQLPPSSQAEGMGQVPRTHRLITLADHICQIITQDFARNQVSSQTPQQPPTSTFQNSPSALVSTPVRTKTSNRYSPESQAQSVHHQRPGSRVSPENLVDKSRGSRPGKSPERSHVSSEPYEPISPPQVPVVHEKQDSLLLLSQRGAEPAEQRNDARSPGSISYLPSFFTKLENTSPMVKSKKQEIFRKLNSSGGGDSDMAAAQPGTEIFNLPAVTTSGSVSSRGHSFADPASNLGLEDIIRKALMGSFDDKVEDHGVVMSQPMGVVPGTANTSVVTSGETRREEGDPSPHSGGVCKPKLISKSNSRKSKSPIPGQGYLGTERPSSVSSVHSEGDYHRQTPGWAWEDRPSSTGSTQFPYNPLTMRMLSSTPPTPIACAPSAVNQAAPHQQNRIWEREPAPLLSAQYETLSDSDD

fl-HDAC4 = fl-HDAC4 (Homo sapiens, UniProt P56524); assay: HDAC4 enzymatic assay with Lys; assay type: biochemical; conditions: Lys(TFA)-AMC substrate
fl-HDAC4, sequence (P56524 whole entry): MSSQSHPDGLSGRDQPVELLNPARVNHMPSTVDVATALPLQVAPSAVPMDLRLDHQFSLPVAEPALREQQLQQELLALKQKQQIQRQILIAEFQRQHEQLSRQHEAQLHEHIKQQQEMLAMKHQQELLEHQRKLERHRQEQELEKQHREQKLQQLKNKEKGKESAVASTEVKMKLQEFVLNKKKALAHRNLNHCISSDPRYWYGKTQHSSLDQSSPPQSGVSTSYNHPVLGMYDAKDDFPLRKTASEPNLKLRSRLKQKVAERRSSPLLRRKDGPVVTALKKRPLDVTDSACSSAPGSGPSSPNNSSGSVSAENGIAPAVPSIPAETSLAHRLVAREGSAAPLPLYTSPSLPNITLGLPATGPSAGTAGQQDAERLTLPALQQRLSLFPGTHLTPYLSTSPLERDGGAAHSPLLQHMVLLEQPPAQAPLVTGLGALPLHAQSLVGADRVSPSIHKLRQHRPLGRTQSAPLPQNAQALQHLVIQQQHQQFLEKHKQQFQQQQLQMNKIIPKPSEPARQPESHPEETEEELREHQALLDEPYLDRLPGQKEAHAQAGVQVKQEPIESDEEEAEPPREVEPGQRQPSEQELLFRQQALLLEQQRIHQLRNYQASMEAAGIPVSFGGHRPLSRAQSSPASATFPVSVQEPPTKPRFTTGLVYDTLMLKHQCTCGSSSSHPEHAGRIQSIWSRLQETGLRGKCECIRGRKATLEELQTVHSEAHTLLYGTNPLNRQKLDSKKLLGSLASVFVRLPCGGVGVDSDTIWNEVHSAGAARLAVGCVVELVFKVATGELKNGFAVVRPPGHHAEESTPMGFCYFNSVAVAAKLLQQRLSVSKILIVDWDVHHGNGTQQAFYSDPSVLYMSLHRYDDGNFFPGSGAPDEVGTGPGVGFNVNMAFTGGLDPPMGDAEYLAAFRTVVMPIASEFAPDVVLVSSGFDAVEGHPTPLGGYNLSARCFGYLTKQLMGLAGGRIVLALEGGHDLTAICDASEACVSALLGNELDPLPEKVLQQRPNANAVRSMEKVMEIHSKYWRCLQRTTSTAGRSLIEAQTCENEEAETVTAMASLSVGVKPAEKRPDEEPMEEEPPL

fl-wild-type HDAC4 = fl-wild-type HDAC4 (Homo sapiens, UniProt P56524); assay: SPR competition: TasQ in solution vs immobilized TasQ for fl-wild-type HDAC4; assay type: binding
fl-wild-type HDAC4, sequence (P56524 whole entry): as above

[4] = target: fl-R681A/R798A double mutant HDAC4 protein (Homo sapiens, UniProt P56524, R681A/R798A); assay: SPR competition: TasQ in solution vs immobilized TasQ for mutant HDAC4; assay type: binding
fl-R681A/R798A double mutant HDAC4 protein, sequence (P56524 whole entry R681A/R798A): as the sequence (P56524 whole entry) above, with R681A, R798A counted along it

[5] = test system: human umbilical vein endothelial cells (HUVECs); assay: Three dimensional; assay type: cell-based; conditions: CM-supplemented 3D cultures, 10 μM
CWR-22Rv1 xenografts = assay type: in vivo, human xenograft in mice; conditions: oral 10 mg/kg/d
CWR22-RH PDXs = assay: RNA sequencing of in vivo growing CWR22-RH PDX; set-up: species or system human xenograft in mice; conditions: oral 10 mg/kg/d vs vehicle, castrate hosts
[6] = cited from earlier work
[7] = test system: metastatic castration-resistant prostate cancer (mCRPC); conditions: cited from earlier work
[8] = test system: prostate cancer xenografts; conditions: oral 10 mg/kg/d, cited from earlier work
HIF-1α protein = conditions: daily oral 10 mg/kg/d; cited from earlier work
[9] = test system: prostate cancer xenografts; conditions: cited from earlier work
[10] = cited from earlier work; remark: listed apart in the source
[11] = phase 1B, TasQ combined with cabazitaxel, RECIST

## COc1cccc2c1c(O)c(C(=O)N(C)c1ccc(C(F)(F)F)cc1)c(=O)n2C [TasQ, 4-hydroxy-5-methoxy-N,1-dimethyl-2-oxo-N-[(4-trifluoromethyl)phenyl]-1,2-dihydroquinoline-3-caboxamide]
[1]
  EC50: 1 µM
LNCaP cells
  effect on cells: the cells die
[2]
  oral daily dose giving maximal significant growth inhibition: ≥ 5 mg/kg/day
thymus
  thymus weight: 41.6 ± 6 mg
Liver Cyp1a1
  induction of liver Cyp1a1: > 50 fold
[3]
  inhibition of growth at end of study (fraction): ~ 2/3
fl-NCoR1 protein
  binding to immobilized fl-NCoR1: no detectable binding
fl-HDAC4
  effect on enzymatic activity: did not inhibit
fl-wild-type HDAC4
  EC50: 1 µM
[4]
  displacement of mutant HDAC4 from immobilized TasQ: not competitively displaced
[5]
  sprouting: sprouting prevented
CWR-22Rv1 xenografts; dominant-positive mutant HIF-1α tumors
  growth inhibition: < 25%
CWR-22Rv1 xenografts; wild type cells
  growth inhibition: > 80%
CWR22-RH PDXs
  AGR2, AHR Target Genes (Fold Increases by TasQ): 5.5 fold
  AHR, AHR Target Genes (Fold Increases by TasQ): 3.0 fold
  ALDOC, HIF-1a Target Genes (Fold Decrease by TasQ): −1.4 fold
  AR, AR Target Genes (Fold Decrease by TasQ): −2.0 fold
  BNIP3, HIF-1a Target Genes (Fold Decrease by TasQ): −1.9 fold
  CDC6, Proliferation Target Genes (Fold Decrease by TasQ): −1.5 fold
  CDT1, Proliferation Target Genes (Fold Decrease by TasQ): −2.2 fold
  CYP1B1, AHR Target Genes (Fold Increases by TasQ): 10.0 fold
  DTYMK, Proliferation Target Genes (Fold Decrease by TasQ): −1.6 fold
  E2F1, Proliferation Target Genes (Fold Decrease by TasQ): −2.0 fold
  GDF15, AHR Target Genes (Fold Increases by TasQ): 2.3 fold
  HILPDA, HIF-1a Target Genes (Fold Decrease by TasQ): −1.7 fold
  IGF1, HIF-1a Target Genes (Fold Decrease by TasQ): −11.0 fold
  IGFBP2, HIF-1a Target Genes (Fold Decrease by TasQ): −1.8 fold
  IGFBP5, HIF-1a Target Genes (Fold Decrease by TasQ): −18.0 fold
  KLKP1, AR Target Genes (Fold Decrease by TasQ): −2.3 fold
  LDHA, HIF-1a Target Genes (Fold Decrease by TasQ): −1.5 fold
  LOX, HIF-1a Target Genes (Fold Decrease by TasQ): −4.0 fold
  MCM2, Proliferation Target Genes (Fold Decrease by TasQ): −1.9 fold
  MCM3, Proliferation Target Genes (Fold Decrease by TasQ): −1.6 fold
  MCM5, Proliferation Target Genes (Fold Decrease by TasQ): −2.0 fold
  MKI67, Proliferation Target Genes (Fold Decrease by TasQ): −1.7 fold
  NKX3.1, AR Target Genes (Fold Decrease by TasQ): −2.3 fold
  NQOI, AHR Target Genes (Fold Increases by TasQ): 2.9 fold
  P4HA1, HIF-1a Target Genes (Fold Decrease by TasQ): −1.8 fold
  PDK1, HIF-1a Target Genes (Fold Decrease by TasQ): −1.7 fold
  PTN, HIF-1a Target Genes (Fold Decrease by TasQ): −6.1 fold
  SLC45A3, AR Target Genes (Fold Decrease by TasQ): −3.7 fold
  TIPARP, AHR Target Genes (Fold Increases by TasQ): 3.4 fold
  TMPRSS2, AR Target Genes (Fold Decrease by TasQ): −1.9 fold
  TNC, HIF-1a Target Genes (Fold Decrease by TasQ): −2.5 fold
  TTR, HIF-1a Target Genes (Fold Decrease by TasQ): −3.8 fold
  VEGFB, HIF-1a Target Genes (Fold Decrease by TasQ): −1.5 fold
CWR22-RH PDXs; section title: upregulation
  BHLHE41, MEF-2 Target Genes (Fold Decrease by TasQ): 2.9 fold
  CA12, MEF-2 Target Genes (Fold Decrease by TasQ): 2.7 fold
  CAPN2, MEF-2 Target Genes (Fold Decrease by TasQ): 1.6 fold
  CEACAM1, MEF-2 Target Genes (Fold Decrease by TasQ): 1.8 fold
  EDN1, MEF-2 Target Genes (Fold Decrease by TasQ): 15.0 fold
  NR4A1, MEF-2 Target Genes (Fold Decrease by TasQ): 1.4 fold
  NR4A2, MEF-2 Target Genes (Fold Decrease by TasQ): 1.8 fold
  S100P, MEF-2 Target Genes (Fold Decrease by TasQ): 5.7 fold
  THB5, MEF-2 Target Genes (Fold Decrease by TasQ): 8.0 fold
[6]; oral 5 mg/kg/d, at 24 hrs
  serum nadir: 1.08 ± 0.21 µM
[6]; oral 10 mg/kg/d
  blood concentration maintained: > 1000 nM
[7]; [11]
  patients with complete or partial response (CR/PR): 12%
  patients with stable disease: 48%
[7]; phase III, 1 mg/day
  overall survival (OS): not significantly enhanced
[7]; phase III, daily oral
  reduction of risk of radiographic progression or death vs. placebo: 36%
[7]; randomized phase II, mCRPC progressing on ADT
  improvement of median progression-free survival (PFS): 4.3 months
[8]; lowered from >3 mmHg
  pO2 in the TME: 1.4 +/− 1.0 mmHg
[8]
  enhancement of hypoxia: > 2 fold
HIF-1α protein
  lowering of HIF-1α protein in tumors: > 50%
[9]; based on serum drug level
  fold more potent compared to Linomide: ≥ 100 fold
[9]
  daily oral dosing required in mice: > 5 mg/kg/day
  fold increase in anti-tumor efficacy compared to Linomide: > 25 fold
[9]; preclinical
  daily oral dosing required for maximal therapeutic activity: ≥ 5 mg/kg
  serum concentration to be maintained for maximal therapeutic activity: > 2 µM
[10]; 0.5 mg/d
  plasma concentration maintained: 230 ± 30 nM
[10]; 1 mg/day
  steady-state plasma level: 0.42 ± 0.05 µM
[10]; phase 1B
  MTD when combined with cabazitaxel and prednisone: 0.5 mg/day
[10]; phase I, oral, after dose escalation over 4–6 weeks
  maximum tolerated dose (MTD): 1 mg/day
[10]; phase I
  dose-limiting toxicity: sinus tachycardia and asymptomatic elevation in amylase
